Source: patent publication US5084453A, “1-carboxy-1-vinyloxyimino aminothiazole cephalosporin derivatives” (priority 1988, dated 1992)
In brackets after ≈: the same amount, converted by molar mass. Read-outs that look alike come from different tables or passages of the source.

Experiments:
Test in all cases: in vitro antibacterial activity, agar plate dilution method
Type in all cases: cell-based
E. coli NIHJ JC2 = conditions: Escherichia coli, NIHJJC2; 10^6 CFU/ml; Mueller Hinton agar, 37° C., 16 hours; read-out: MIC
Procedure: (§1) Now, the in vitro antibacterial activities of the compounds of the present invention against various microorganisms, were measured by the following agar plate dilution method.
(§2) One platinum loopfull of each test microorganism incubated overnight in Mueller Hinton broth, was inoculated to Mueller Hinton agar (MH agaer). Such culture media containing various antibiotics in various concentrations were prepared. After incubation at 37° C. for 16 hours, the minimum inhibitory concentrations (MIC μg/ml) were measured.

K. pneumoniae PC1-602 = conditions: Klebsiella pneumoniae
Procedure: as §1, §2

A. calcoaceticus No. 4 = conditions: Acinetobacter calcoaceticus, NO.4; 10^6 CFU/ml; Mueller Hinton agar, 37° C., 16 hours; read-out: MIC
Procedure: as §1, §2

K. pneumoniae No. 42* = conditions: Klebsiella pneumoniae
Procedure: as §1, §2

P. vulgaris HX-19 = conditions: Proteus vulgaris
Procedure: as §1, §2

M. morganii GN5407* = conditions: Morganella morganii, GN5407, 16 h
Procedure: as §1, §2

K. oxytoca GN10650* = conditions: Klebsiella oxytoca, GN10650, 16 h
Procedure: as §1, §2

Ps. aeruginosa AK 109 = conditions: Pseudomonas aeruginosa, AK109; 10^6 CFU/ml; Mueller Hinton agar, 37° C., 16 hours; read-out: MIC
Procedure: as §1, §2

E. cloacae Nek 39* = conditions: Enterobacter cloacae
Procedure: as §1, §2

E. coli GN5482* = conditions: Escherichia coli
Procedure: as §1, §2

E. coli CSH(RE45)* = conditions: Escherichia coli; 10^6 CFU/ml; β-Lactamase-producing strain; 37° C., 16 hours; read-out: MIC
Procedure: as §1, §2

Ps. cepacia 23 = conditions: Burkholderia cepacia, 23; 10^6 CFU/ml; Mueller Hinton agar, 37° C., 16 hours; read-out: MIC
Procedure: as §1, §2

Ps. aeruginosa AKR17 = conditions: Pseudomonas aeruginosa, AKR17; 10^6 CFU/ml; Mueller Hinton agar, 37° C., 16 hours; read-out: MIC
Procedure: as §1, §2

Ps. aeruginosa IFO3445 = conditions: Pseudomonas aeruginosa
Procedure: as §1, §2

P. vulgaris No. 33* = conditions: Proteus vulgaris
Procedure: as §1, §2

E. cloacae 963 = conditions: Enterobacter cloacae, 963, 16 h
Procedure: as §1, §2

S. marcescens IAM 1184 = conditions: Serratia marcescens
Procedure: as §1, §2

S. marcescens No. 16-2* = conditions: Serratia marcescens
Procedure: as §1, §2

E. coli CSH2(RK1)* = conditions: Escherichia coli, 16 h
Procedure: as §1, §2

S. aureus 209P NIHJ-JC1 = conditions: Staphylococcus aureus
Procedure: as §1, §2

[1] = HX19, 10^6 CFU/ml, Mueller Hinton agar, 37° C., 16 hours, read-out: MIC
[2] = 10^6 CFU/ml, β-Lactamase-producing strain, 37° C., 16 hours, read-out: MIC
[3] = IFO3445, 10^6 CFU/ml, Mueller Hinton agar, 37° C., 16 hours, read-out: MIC
[4] = IAM1184, 10^6 CFU/ml, Mueller Hinton agar, 37° C., 16 hours, read-out: MIC
[5] = 10^6 CFU/ml, Mueller Hinton agar, 37° C., 16 hours, read-out: MIC
[6] = PC1602, 10^6 CFU/ml, Mueller Hinton agar, 37° C., 16 hours, read-out: MIC

C=C(O/N=C(\C(=O)N[C@@H]1C(=O)N2C(C(=O)O)=C(C[n+]3ccc(CS(=O)(=O)[O-])cc3)CS[C@H]12)c1csc(N)n1)C(=O)O [Example 7, 7β-[2-(2-aminothiazol-4-yl)-2-(1-carboxy-1-vinyloxyimino]acetamido]-3-(4-sulfonatomethyl-1-pyridinio)methyl-3-cephem-4-carboxylic acid (syn-isomer)]
MIC (E. coli NIHJ JC2): 0.1 µg/mL (≈ 0.16 µM) | MIC (K. pneumoniae PC1-602; PC1602, 16 h): 0.025 µg/mL (≈ 0.04 µM) | MIC (A. calcoaceticus No. 4): 50 µg/mL (≈ 80 µM) | MIC (K. pneumoniae No. 42*; 16 h): 0.39 µg/mL (≈ 0.624 µM) | MIC (P. vulgaris HX-19; [1]): 0.0125 µg/mL (≈ 0.02 µM) | MIC (M. morganii GN5407*): 0.025 µg/mL (≈ 0.04 µM) | MIC (K. oxytoca GN10650*): 0.39 µg/mL (≈ 0.624 µM) | MIC (Ps. aeruginosa AK 109): 25 µg/mL (≈ 40 µM) | MIC (E. cloacae Nek 39*; [2]): 3.12 µg/mL (≈ 4.99 µM) | MIC (E. coli GN5482*; GN5482, 16 h): 1.56 µg/mL (≈ 2.5 µM) | MIC (E. coli CSH(RE45)*): 0.05 µg/mL (≈ 0.08 µM) | MIC (Ps. cepacia 23): 12.5 µg/mL (≈ 20 µM) | MIC (Ps. aeruginosa AKR17): > 100 µg/mL | MIC (Ps. aeruginosa IFO3445; [3]): 3.12 µg/mL (≈ 4.99 µM) | MIC (P. vulgaris No. 33*; [2]): 0.0125 µg/mL (≈ 0.02 µM) | MIC (E. cloacae 963): 0.1 µg/mL (≈ 0.16 µM) | MIC (S. marcescens IAM 1184; [4]): 0.0125 µg/mL (≈ 0.02 µM) | MIC (S. marcescens No. 16-2*; [2]): 3.12 µg/mL (≈ 4.99 µM) | MIC (E. coli CSH2(RK1)*): 0.2 µg/mL (≈ 0.32 µM) | MIC (S. aureus 209P NIHJ-JC1; [5]): 25 µg/mL (≈ 40 µM)

C=C(O/N=C(\C(=O)N[C@@H]1C(=O)N2C(C(=O)O)=C(C[n+]3ccc(CCS(=O)(=O)[O-])cc3)CS[C@H]12)c1csc(N)n1)C(=O)O [Example 8, 7β-[2-(2-aminothiazol-4-yl)-2-(1-carboxy-1-vinyloxyimino)acetamido]-3-[4-(2-sulfonatoethyl)-1-pyridinio]methyl-3-cephem-4-carboxylic acid (syn-isomer)]
MIC (E. coli NIHJ JC2): 0.05 µg/mL (≈ 0.0783 µM) | MIC (K. pneumoniae PC1-602; PC1602, 16 h): 0.025 µg/mL (≈ 0.0391 µM) | MIC (A. calcoaceticus No. 4): 12.5 µg/mL (≈ 19.6 µM) | MIC (K. pneumoniae No. 42*; [2]): 0.39 µg/mL (≈ 0.611 µM) | MIC (P. vulgaris HX-19; HX19, 16 h): 0.025 µg/mL (≈ 0.0391 µM) | MIC (M. morganii GN5407*): 0.05 µg/mL (≈ 0.0783 µM) | MIC (K. oxytoca GN10650*): 0.2 µg/mL (≈ 0.313 µM) | MIC (Ps. aeruginosa AK 109): 12.5 µg/mL (≈ 19.6 µM) | MIC (E. cloacae Nek 39*; 16 h): 0.78 µg/mL (≈ 1.22 µM) | MIC (E. coli GN5482*; GN5482, 10^6 CFU/ml, β-Lactamase-producing strain, 37° C., 16 hours, read-out: MIC): 0.39 µg/mL (≈ 0.611 µM) | MIC (E. coli CSH(RE45)*): 0.05 µg/mL (≈ 0.0783 µM) | MIC (Ps. cepacia 23): 12.5 µg/mL (≈ 19.6 µM) | MIC (Ps. aeruginosa AKR17): > 100 µg/mL | MIC (Ps. aeruginosa IFO3445; [3]): 3.12 µg/mL (≈ 4.89 µM) | MIC (P. vulgaris No. 33*; 16 h): 0.05 µg/mL (≈ 0.0783 µM) | MIC (E. cloacae 963): 0.2 µg/mL (≈ 0.313 µM) | MIC (S. marcescens IAM 1184; IAM1184, 16 h): 0.025 µg/mL (≈ 0.0391 µM) | MIC (S. marcescens No. 16-2*; [2]): 3.12 µg/mL (≈ 4.89 µM) | MIC (E. coli CSH2(RK1)*): 0.05 µg/mL (≈ 0.0783 µM) | MIC (S. aureus 209P NIHJ-JC1; [5]): 6.25 µg/mL (≈ 9.79 µM)

C=C(O/N=C(\C(=O)N[C@@H]1C(=O)N2C(C(=O)[O-])=C(C[n+]3cccc(N)c3)CS[C@H]12)c1csc(N)n1)C(=O)O [Example 9, sodium 7β-[2-(2-aminothiazol-4-yl)-2-(1-carboxylato-1-vinyloxyimino)acetamido]-3-(3-amino-1-5 pyridinio)methyl 3-cephem-4-carboxylate (syn-isomer)]
MIC (E. coli NIHJ JC2): 0.025 µg/mL | MIC (K. pneumoniae PC1-602; [6]): < 0.006 µg/mL | MIC (A. calcoaceticus No. 4): 3.12 µg/mL | MIC (K. pneumoniae No. 42*; 16 h): 0.1 µg/mL | MIC (P. vulgaris HX-19; HX19, 16 h): 0.0125 µg/mL | MIC (M. morganii GN5407*): 0.39 µg/mL | MIC (K. oxytoca GN10650*): 0.1 µg/mL | MIC (Ps. aeruginosa AK 109): 3.12 µg/mL | MIC (E. cloacae Nek 39*; 16 h): 0.78 µg/mL | MIC (E. coli GN5482*; GN5482, 16 h): 0.2 µg/mL | MIC (E. coli CSH(RE45)*): 0.0125 µg/mL | MIC (Ps. cepacia 23): 3.12 µg/mL | MIC (Ps. aeruginosa AKR17): > 100 µg/mL | MIC (Ps. aeruginosa IFO3445; IFO3445, 16 h): 0.78 µg/mL | MIC (P. vulgaris No. 33*; 16 h): 0.0125 µg/mL | MIC (E. cloacae 963): 0.05 µg/mL | MIC (S. marcescens IAM 1184; [4]): < 0.006 µg/mL | MIC (S. marcescens No. 16-2*; 16 h): 1.56 µg/mL | MIC (E. coli CSH2(RK1)*): 0.025 µg/mL | MIC (S. aureus 209P NIHJ-JC1; [5]): 3.12 µg/mL

C=C(O/N=C(\C(=O)N[C@@H]1C(=O)N2C(C(=O)[O-])=C(C[n+]3cccc(NC=O)c3)CS[C@H]12)c1csc(N)n1)C(=O)O [Example 10, sodium 7β-[2-(2-aminothiazol-4-yl)-2-(1-carboxylato-1-vinyloxyimino)acetamido]-3-(3-formylamino-1-pyridinio)methyl-3-cephem-4-carboxylate (syn-isomer)]
MIC (E. coli NIHJ JC2): 0.0125 µg/mL | MIC (K. pneumoniae PC1-602; [6]): < 0.006 µg/mL | MIC (A. calcoaceticus No. 4): 3.12 µg/mL | MIC (K. pneumoniae No. 42*; 16 h): 0.05 µg/mL | MIC (P. vulgaris HX-19; [1]): < 0.006 µg/mL | MIC (M. morganii GN5407*): 0.0125 µg/mL | MIC (K. oxytoca GN10650*): 0.05 µg/mL | MIC (Ps. aeruginosa AK 109): 3.12 µg/mL | MIC (E. cloacae Nek 39*; 16 h): 0.39 µg/mL | MIC (E. coli GN5482*; GN5482, 16 h): 0.1 µg/mL | MIC (E. coli CSH(RE45)*): 0.0125 µg/mL | MIC (Ps. cepacia 23): 3.12 µg/mL | MIC (Ps. aeruginosa AKR17): > 100 µg/mL | MIC (Ps. aeruginosa IFO3445; IFO3445, 16 h): 0.78 µg/mL | MIC (P. vulgaris No. 33*; 16 h): 0.0125 µg/mL | MIC (E. cloacae 963): 0.025 µg/mL | MIC (S. marcescens IAM 1184; [4]): < 0.006 µg/mL | MIC (S. marcescens No. 16-2*; 16 h): 1.56 µg/mL | MIC (E. coli CSH2(RK1)*): 0.0125 µg/mL | MIC (S. aureus 209P NIHJ-JC1; 16 h): 1.56 µg/mL
